Results published in paper PMC11783063, “Design, synthesis, and apoptotic antiproliferative action of new benzimidazole/1,2,3-triazole hybrids as EGFR inhibitors” (Frontiers in Chemistry, 2025).

Tests used:
[1] = test system: leukemia subpanel of 60 human carcinoma cell lines; design: method as in Youssif et al., 2024; conditions: NCI five-dose, ref Youssif et al., 2024; cited from earlier work
[2] = target: EGFR (Homo sapiens, UniProt P00533); design: method as in Ihmaid et al., 2021; conditions: ref Ihmaid et al., 2021; read-out: EGFR inhibition IC50; cited from earlier work
[3] = test system: caspase-3; assay: Caspase-3 activation assay in MCF-7 cells; format: cell-based, human; conditions: vs untreated control
Text: (§1) Cells experience apoptosis in reaction to specific signaling cues, resulting in significant modifications. […] They decompose vital cellular components, including nuclear proteins, such as DNA repair enzymes and structural proteins within the cytoskeleton, essential for optimal cellular function.
(§2) Supplementary Appendix A provides more details.
Allow all reagents to reach room temperature before use. Gently mix all liquid reagents prior to use. Determine the number of 8-well strips needed for the assay. Insert these in the frame(s) for current use. Add 100 μl of the Standard Diluent Buffer to the zero standard wells. Well(s) reserved for chromogen blank should be left empty. Add 100 μl of standards and controls or diluted samples to the appropriate microtiter wells. The sample dilution chosen should be optimized for each experimental system. Tap gently on the side of plate to mix. Cover wells with plate cover and incubate for 2 hours at room temperature. Thoroughly aspirate or decant solution from wells and discard the liquid, Wash wells 4 times. […] Tap gently on the side of the plate to mix. Cover plate with plate cover and incubate for 1 hour at room temperature. Thoroughly aspirate or decant solution from wells and discard the liquid, Wash wells 4 times. Add 100 μl Anti-Rabbit IgG HRP Working Solution to each well except the chromogen blank(s). Prepare the working dilution as described in Preparing IgG HRP. Cover wells with the plate cover and incubate for 30 minutes at room temperature. Thoroughly aspirate or decant solution from wells and discard the liquid. Wash wells 4 times. Add 100 μl of Stabilized Chromogen to each well. The liquid in the wells will begin to turn blue. Incubate for 30 minutes at room temperature and in the dark. The incubation time for chromogen substrate is often determined by the microtiter plate reader used. […] The O.D. values should be monitored, and the substrate reaction stopped before the O.D. of the positive wells exceeds the limits of the instrument. The O.D. values at 450 nm can only be read after the Stop Solution has been added to each well. […] Add 100 μl of Stop Solution to each well. Tap side of plate gently to mix. The solution in the wells should change from blue to yellow. Read the absorbance of each well at 450 nm having blanked the plate reader against a chromogen blank composed of 100 μl each of Stabilized Chromogen and Stop Solution. Read the plate within 2 hours after adding the Stop Solution. Use a curve fitting software to generate the standard curve. […] Read the concentrations for unknown samples and controls from the standard curve. Multiply value(s) obtained for sample(s) by the appropriate dilution factor to correct for the dilution in step 3.

[4] = test system: caspase-8; assay: Caspase-8 activation assay in MCF-7 cells; format: cell-based, human
Method: as §1, §2
The absorbance of each microwell was read on a spectrophotometer at 450 nm. A standard curve is prepared from 7human Caspase-8 standard dilutions and human Caspase-8 concentration determined.

[5] = test system: Bax; assay: Bax activation assay in MCF-7 cells; format: cell-based, human
Method: (§3) The current study supplied compounds 6i and 10e to breast (MCF-7) cancer cell lines at their respective IC50 values. This led to a notable elevation of pro-apoptotic Bax expression, with a fold increase of 34 for compound 6i and 36 for compound 10e.
(§4) Compounds 6i and 10e were assessed for their ability to activate caspase-3, caspase-8, and Bax, as well as to downregulate the anti-apoptotic protein Bcl2 in the MCF-7 breast cancer cell line ([Abdelbaset et al., 2019]). Supplementary Appendix A provides more details.
Bring all reagents, except the human Bax-α Standard, to room temperature for at least 30 minutes prior to opening. The human Bax-α Standard solution should not be left at room temperature for more than 10 minutes. All standards, controls and samples should be run in duplicate. Refer to the Assay Layout Sheet to determine the number of wells to be used and put any remaining wells with the desiccant back into the pouch and seal the ziploc. Store unused wells at 4 °C. Pipet 100 μL of Assay Buffer into the S0 (0 pg/mL standard) wells. Pipet 100 μL of Standards #1 through #6 into the appropriate wells. Pipet 100 μL of the Samples into the appropriate wells. Tap the plate gently to mix the contents. Seal the plate and incubate at room temperature on a plate shaker for 1 hour at ~500 rpm. Empty the contents of the wells and wash by adding 400 μL of wash solution to every well. Repeat the wash 4 more times for a total of 5 washes. After the final wash, empty or aspirate the wells and firmly tap the plate on a lint free paper towel to remove any remaining wash buffer. Pipet 100 μL of yellow Antibody into each well, except the Blank. Seal the plate and incubate at room temperature on a plate shaker for 1 hour at ~500 rpm. Empty the contents of the wells and wash by adding 400 μL of wash solution to every well. Repeat the wash 4 more times for a total of 5 washes. After the final wash, empty or aspirate the wells and firmly tap the plate on a lint free paper towel to remove any remaining wash buffer. Add 100 μL of blue Conjugate to each well, except the Blank. Seal the plate and incubate at room temperature on a plate shaker for 30 minutes at ~500 rpm. Empty the contents of the wells and wash by adding 400 μL of wash solution to every well. Repeat the wash 4 more times for a total of 5 washes. After the final wash, empty or aspirate the wells and firmly tap the plate on a lint free paper towel to remove any remaining wash buffer. Pipet 100 μL of Substrate Solution into each well. Incubate for 30 minutes at room temperature on a plate shaker at ~500 rpm. Pipet 100 μL Stop Solution to each well. Blank the plate reader against the Blank wells, read the optical density at 450 nm. Calculate the average net Optical Density (OD) bound for each standard and sample by subtracting the average Blank OD from the average OD for each standard and sample. Using linear graph paper, plot the Average Net OD for each standard versus Bax concentration in each standard. Approximate a straight line through the points. The concentration of Bax in the unknowns can be determined by interpolation.

[6] = test system: Bcl-2; assay: Bcl-2 inhibition assay in MCF-7 cells; format: cell-based, human
Method: as §3, §4
Mix all the reagents thoroughly without foaming before use. Wash the microwells twice with approximately 300 μL Wash Buffer per well with thorough aspiration of microwell contents between washes. Take caution not to scratch the surface of the microwells. After the last wash, empty the wells and tap microwell strips on an absorbent pad or paper towel to remove excess Wash Buffer. Use the microwell strips immediately after washing or place upside down on a wet absorbent paper for not longer than 15 minutes. […] Add 100 μL of Sample Diluent in duplicate to all standard wells and to the blank wells. Prepare standard (1:2 dilution) in duplicate ranging from 32 ng/mL to 0.5 ng/mL. Add 100 μL of Sample Diluent, in duplicate, to the blank wells. Add 80 μL of Sample Diluent, in duplicate, to the sample wells. Add 20 μL of each Sample, in duplicate, to the designated wells. Add 50 μL of diluted biotin-conjugate to all wells, including the blank wells. Cover with a plate cover and incubate at room temperature, on a microplate shaker at 100 rpm if available, for 2 hours. Remove plate cover and empty the wells. Wash microwell strips 3 times as described in step 2. Add 100 μL of diluted Streptavidin-HRP to all wells, including the blank wells. Cover with a plate cover and incubate at room temperature, on a microplate shaker at 100 rpm if available, for 1 hour. Remove the plate cover and empty the wells. Wash microwell strips 3 times as described in step 2. Proceed to the next step. Pipette 100 μl of mixed TMB Substrate Solution to all wells, including the blanks. Incubate the microwell strips at room temperature (18° to 25°C) for about 15 minutes, if available on a rotator set at 100 rpm. Avoid direct exposure to intense light. The point, at which the substrate reaction is stopped, is often determined by the ELISA reader. Many ELISA readers record absorbance only up to 2.0 O.D. Therefore, the color development within individual microwells must be watched by the person running the assay and the substrate reaction stopped before positive wells are no longer properly detectable. Stop the enzyme reaction by quickly pipetting 100 μL of Stop Solution into each well, including the blank wells. It is important that the Stop Solution is spread quickly and uniformly throughout the microwells to completely inactivate the enzyme. Results must be read immediately after the Stop Solution is added or within one hour if the microwell strips are stored at 2 - 8°C in the dark. Read the absorbance of each microwell on a spectrophotometer using 450 nm as the primary wavelength.

Chain of EGFR (P00533 669-1210): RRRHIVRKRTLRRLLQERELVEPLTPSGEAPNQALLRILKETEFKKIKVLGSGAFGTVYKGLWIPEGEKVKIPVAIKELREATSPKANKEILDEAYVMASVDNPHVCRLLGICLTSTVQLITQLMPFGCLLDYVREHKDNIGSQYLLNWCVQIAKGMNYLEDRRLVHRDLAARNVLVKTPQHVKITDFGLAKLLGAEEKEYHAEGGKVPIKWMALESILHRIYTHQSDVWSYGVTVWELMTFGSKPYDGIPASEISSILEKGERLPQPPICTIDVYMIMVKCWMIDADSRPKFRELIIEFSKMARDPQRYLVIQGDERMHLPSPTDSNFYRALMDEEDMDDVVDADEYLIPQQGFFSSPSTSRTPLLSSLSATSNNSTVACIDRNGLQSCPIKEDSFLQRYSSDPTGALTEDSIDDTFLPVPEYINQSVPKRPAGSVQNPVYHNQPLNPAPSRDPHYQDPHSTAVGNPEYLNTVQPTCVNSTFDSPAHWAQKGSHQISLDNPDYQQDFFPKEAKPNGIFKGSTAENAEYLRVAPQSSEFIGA

O=C(N/N=C/c1ccc([N+](=O)[O-])cc1)c1ccc2[nH]c(-c3ccc(Cl)cc3)nc2c1 [I]
Selectivity ratio towards the leukemia subpanel at the GI50 level [1]: 5.96

Cc1ccc(NC(=O)Cn2cc(CN3C(=O)c4cc(Cl)c(Cl)cc4C3=O)nn2)cc1F [III]
IC50 [2]: 79 nM

CN[C@@H]1C[C@H]2O[C@@](C)([C@@H]1OC)n1c3ccccc3c3c4c(c5c6ccccc6n2c5c31)C(=O)NC4 [Staurosporine, reference compound]
Caspase-3 Fold change [3]: 7
Caspase-8 Conc ([4]; compound at its IC50 concentration): 1.50 ± 0.10 ng/mL
Caspase-8 Fold change ([4]; vs untreated control): 17
Bax Conc ([5]; compound at its IC50): 288 ± 2 pg/mL
Bax Fold change ([5]; vs untreated control): 32
Bcl-2 Conc ([6]; compound at its IC50): 1.20 ng/mL
Bcl-2 Fold reduction ([6]; vs untreated control): 4
